This is an account of results in US20260374754A1, “N-((ISOQUINOLIN-6-YL)METHYL)-1H-PYRAZOLE-4-CARBOXAMIDE DERIVATIVES AS PLASMA KALLIKREIN INHIBITORS FOR THE TREATMENT OF HEREDITARY ANGIODEMA” (Takeda Pharmaceutical Company Limited, priority 2022, published 2026).

Structures can show the parent of a compound that is named as a salt.

human activated kallikrein enzyme, sequence (P03952 391-638 limits assumed): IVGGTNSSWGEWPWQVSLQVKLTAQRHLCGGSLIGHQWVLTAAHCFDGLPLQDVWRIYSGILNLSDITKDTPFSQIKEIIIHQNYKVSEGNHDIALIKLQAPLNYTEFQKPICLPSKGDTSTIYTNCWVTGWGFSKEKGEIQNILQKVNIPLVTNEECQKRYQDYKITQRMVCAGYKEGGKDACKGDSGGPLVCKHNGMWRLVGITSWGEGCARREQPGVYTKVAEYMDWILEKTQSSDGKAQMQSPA
human activated kallikrein enzyme, sequence (P03952 20-390 partner limits assumed): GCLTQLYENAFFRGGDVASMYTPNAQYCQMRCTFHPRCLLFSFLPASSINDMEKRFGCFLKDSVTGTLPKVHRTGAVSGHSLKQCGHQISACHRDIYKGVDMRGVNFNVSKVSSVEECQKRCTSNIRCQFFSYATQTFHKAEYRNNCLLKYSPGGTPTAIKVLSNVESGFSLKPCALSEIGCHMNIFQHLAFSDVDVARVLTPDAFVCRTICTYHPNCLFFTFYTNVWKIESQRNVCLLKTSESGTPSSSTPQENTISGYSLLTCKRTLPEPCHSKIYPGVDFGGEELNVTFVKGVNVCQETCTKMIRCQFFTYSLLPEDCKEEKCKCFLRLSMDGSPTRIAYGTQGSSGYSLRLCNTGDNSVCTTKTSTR

The target of the assay is human activated kallikrein enzyme (Homo sapiens, UniProt P03952). The assay is described as follows: Inhibition of human activated plasma kallikrein, fluorogenic PFR-AMC substrate, 500 pM enzyme format. Format: biochemical. Particulars: 500 pM activated kallikrein; 300 μM PFR-AMC; 30 min preincubation; 10 min room temperature; pH 7.5; read-out: Primary Dose Response Assay: Average EC50. An outline of the steps:
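Using fluorogenic PFR-AMC at 300 μM, cleavage by 500 pM human activated kallikrein ran 10 min at room temperature, read at 460 nm emission (380 nm excitation). Enzyme and compounds were first preincubated 30 min in 20 mM Tris pH 7.5, 150 mM NaCl, 1 mM EDTA, 0.1% PEG-400, 0.1% Triton X-100.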
In the case of `Cc1cc2c(N)nccc2c(C)c1CNc1cc(OCc2ccc(Oc3cccn(C)c3=O)cc2)cnn1` [Example 427, 3-(4-(((6-(((1-amino-5,7-dimethylisoquinolin-6-yl)methyl)amino)pyridazin-4-yl)oxy)methyl)phenoxy)-1-methylpyridin-2(1H)-one], the EC50 is less than 1 nM.

As to `CCc1cnc2ccc(Cn3cc(C(=O)NCc4c(C)cc5c(N)nccc5c4C)cn3)cc2c1` [Example 124, N-((1-amino-5,7-dimethylisoquinolin-6-yl)methyl)-1-((3-ethylquinolin-6-yl)methyl)-1H-pyrazole-4-carboxamide], the EC50 was less than 1 nM.

With `Cc1cc2c(N)nccc2c(C)c1CNc1ncnc(NCc2ccc(Cn3cccn3)cc2)c1F` [Example 234, N4-(4-((1H-pyrazol-1-yl)methyl)benzyl)-N6-((1-amino-5,7-dimethylisoquinolin-6-yl)methyl)-5-fluoropyrimidine-4,6-diamine], the EC50 is 10 to 100 nM.

With `CCOC(=O)N(Cc1ccc(Cn2ccccc2=O)cc1)c1cc(NCc2c(C)cc3c(N)nccc3c2C)ncn1` [Example I-480, ethyl (6-(((1-amino-5,7-dimethylisoquinolin-6-yl)methyl)amino)pyrimidin-4-yl)(4-((2-oxopyridin-1(2H)-yl)methyl)benzyl)carbamate], the EC50 fell in the range of 100 to 1000 nM. With `Cc1cc2c(N)nccc2c(C)c1CNc1cc(NCc2ccc(OCC(=O)N3CC4CC4C3)cc2)ncn1` (stereo not drawn) [Example 344, 2-(4-(((6-(((1-amino-5,7-dimethylisoquinolin-6-yl)methyl)amino)pyrimidin-4-yl)amino)methyl)phenoxy)-1-(3-azabicyclo[3.1.0]hexan-3-yl)ethan-1-one, formic acid salt] the figure was less than 1 nM; with `Cc1cc2c(N)nccc2c(C)c1CNC(=O)c1cc(CN)nn1Cc1ccccc1` [Example 202, N-((1-amino-5,7-dimethylisoquinolin-6-yl)methyl)-3-(aminomethyl)-1-benzyl-1H-pyrazole-5-carboxamide], more than 1000 nM. The value for `Cc1cc2c(N)nccc2c(C)c1CNC(=O)c1cnn(CC(=O)N(C)c2ccccc2)c1` [Compound 155] was more than 1000 nM; that for `Cc1cc2c(N)nccc2c(C)c1CNc1cc(NCc2cn3cc(C4CC4)ccc3n2)cnc1C(=O)O` [Example 497, 3-(((1-amino-5,7-dimethylisoquinolin-6-yl)methyl)amino)-5-(((6-cyclopropylimidazo[1,2-a]pyridin-2-yl)methyl)amino)picolinic acid] was more than 1000 nM; that for `Cc1cc2c(N)nccc2c(C)c1CNC(=O)c1cnn(Cc2ccc(CC(=O)N(C)C)c(Cl)c2)c1` [Example 151, N-((1-amino-5,7-dimethylisoquinolin-6-yl)methyl)-1-(3-chloro-4-(2-(dimethylamino)-2-oxoethyl)benzyl)-1H-pyrazole-4-carboxamide] was less than 1 nM. On to `Cc1cc2c(N)nccc2c(C)c1CNc1cc(OCc2cn3cc(C4CC4)ccc3n2)nc(C(=O)O)n1` [Example 487, 4-(((1-amino-5,7-dimethylisoquinolin-6-yl)methyl)amino)-6-((6-cyclopropylimidazo[1,2-a]pyridin-2-yl)methoxy)pyrimidine-2-carboxylic acid], for which the EC50 is less than 1 nM.

In the case of `Cc1cc2c(N)nccc2c(C)c1CNc1cc(OCc2nc3ccc(C4CC4)cn3n2)nc(CCC(=O)O)n1` [Example 295, 3-(4-(((1-amino-5,7-dimethylisoquinolin-6-yl)methyl)amino)-6-((6-cyclopropyl-[1,2,4]triazolo[1,5-a]pyridin-2-yl)methoxy)pyrimidin-2-yl)propanoic acid], the EC50 lay within 1 to 10 nM. With `Cc1cc2c(N)nccc2c(C)c1CNc1cc(NCc2ccc3c(-c4ccccn4)cccc3c2)ncn1` [Example 241, N4-((1-amino-5,7-dimethylisoquinolin-6-yl)methyl)-N6-((5-(pyridin-2-yl)naphthalen-2-yl)methyl)pyrimidine-4,6-diamine] the figure was 1 to 10 nM; with `Cc1cc2c(N)nccc2c(C)c1CNc1cc(OCc2ccccc2)ncn1` [Example 449, 6-(((6-(benzyloxy)pyrimidin-4-yl)amino)methyl)-5,7-dimethylisoquinolin-1-amine], more than 1000 nM. With `Cc1cc2nc(Cn3cc(C(=O)NCc4c(C)cc5c(N)nccc5c4C)cn3)cn2cc1C1CC1` [Example 146, N-((1-amino-5,7-dimethylisoquinolin-6-yl)methyl)-1-((6-cyclopropyl-7-methylimidazo[1,2-a]pyridin-2-yl)methyl)-1H-pyrazole-4-carboxamide] the figure was less than 1 nM. With `Cc1cc2c(N)nccc2c(C)c1CNC(=O)c1cnn(Cc2ccc(Cc3cccn(CC(F)(F)F)c3=O)cc2)c1` [Example 196, N-((1-amino-5,7-dimethylisoquinolin-6-yl)methyl)-1-(4-((2-oxo-1-(2,2,2-trifluoroethyl)-1,2-dihydropyridin-3-yl)methyl)benzy1)-1H-pyrazole-4-carboxamide] the figure was 1 to 10 nM; with `Cc1c(CNC(=O)c2cnn(Cc3ccccc3)c2)c(C2CC2)cc2c(N)nccc12` [Example 174, N-((1-amino-7-cyclopropyl-5-methylisoquinolin-6-yl)methyl)-1-benzyl-1H-pyrazole-4-carboxamide], 10 to 100 nM.

For the compound `Cc1cc2c(N)nccc2c(C)c1CNc1cc(NCc2ccc(Cc3ccccn3)cc2)ncn1` [Example 363, N^4-((1-amino-5,7-dimethylisoquinolin-6-yl)methyl)-N^6-(4-(pyridin-2-ylmethyl)benzyl)pyrimidine-4,6-diamine], the EC50 is less than 1 nM. With `Cc1cc2c(N)nccc2c(C)c1CNC(=O)c1cnn(Cc2cc3ccccc3s2)c1` [Example 84, N-((1-amino-5,7-dimethylisoquinolin-6-yl)methyl)-1-(benzo[b]thiophen-2-ylmethyl)-1H-pyrazole-4-carboxamide] the figure was 1 to 10 nM. The value for `Cc1cc2c(N)nccc2c(C)c1CNc1cc2c(ccn2Cc2ccc3ncccc3c2)cn1` [Example 528, 5,7-dimethyl-6-(((1-(quinolin-6-ylmethyl)-1H-pyrrolo[3,2-c]pyridin-6-yl)amino)methyl)isoquinolin-1-amine] was more than 1000 nM; that for `Cc1cc2c(N)nccc2c(C)c1CNc1cc(N(Cc2ccc(Cn3cccn3)cc2C(F)(F)F)N=O)ncn1` [Example 381, N-(4-((1H-pyrazol-1-yl)methyl)-2-(trifluoromethyl)benzyl)-N-(6-(((1-amino-5,7-dimethylisoquinolin-6-yl)methyl)amino)pyrimidin-4-yl)nitrous amide] was 10 to 100 nM; that for `Cc1ccc2cc(COc3cnnc(NCc4c(C)cc5c(N)nccc5c4C)c3)ccc2n1` [Example 412, 5,7-dimethyl-6-(((5-((2-methylquinolin-6-yl)methoxy)pyridazin-3-yl)amino)methyl)isoquinolin-1-amine] was less than 1 nM.

Regarding `Cc1cc2c(N)nccc2c(C)c1CNC(=O)c1cnn(Cc2cc3cc(C4CC4)ccn3n2)c1` [Example 121, N-((1-amino-5,7-dimethylisoquinolin-6-yl)methyl)-1-((5-cyclopropylpyrazolo[1,5-a]pyridin-2-yl)methyl)-1H-pyrazole-4-carboxamide], the EC50 was less than 1 nM. Regarding `Cc1cc2c(N)nccc2c(C)c1CNC(=O)c1cnn(Cc2ccc(Cc3ncccn3)cc2)c1` [Example 168, N-((1-amino-5,7-dimethylisoquinolin-6-yl)methyl)-1-(4-(pyrimidin-2-ylmethyl)benzyl)-1H-pyrazole-4-carboxamide], the EC50 was 1 to 10 nM.

Take `Cc1cc2c(N)nccc2c(C)c1CNC(=O)Nc1ncncc1OCc1cn2cc(C3CC3)ccc2n1` [Example 507, 1-((1-amino-5,7-dimethylisoquinolin-6-yl)methyl)-3-(5-((6-cyclopropylimidazo[1,2-a]pyridin-2-yl)methoxy)pyrimidin-4-yl)urea]: the EC50 was in the range of 1 to 10 nM.

On to `Cc1cc2c(N)nccc2c(C)c1CNc1cc(NCc2ccc(OC(C)(C)C(=O)N(C)C)cc2)ncn1` [Example 354, 2-(4-(((6-(((1-amino-5,7-dimethylisoquinolin-6-yl)methyl)amino)pyrimidin-4-yl)amino)methyl)phenoxy)-N,N,2-trimethylpropanamide, formic acid salt], for which the EC50 fell in the range of 10 to 100 nM. With `Cc1cc2c(N)nccc2c(C)c1CNc1cc(NCc2ccc(OCC(=O)N3CCC3)cc2)ncn1` [Example 347, 2-(4-(((6-(((1-amino-5,7-dimethylisoquinolin-6-yl)methyl)amino)pyrimidin-4-yl)amino)methyl)phenoxy)-1-(azetidin-1-yl)ethan-1-one, formic acid salt] the figure was less than 1 nM; with `Cc1cc2c(N)nccc2c(C)c1CNC(=O)c1cnn(Cc2ccc(Cc3cccn(C)c3=O)cc2)c1` [Example 30, N-((1-amino-5,7-dimethylisoquinolin-6-yl)methyl)-1-(4-((1-methyl-2-oxo-1,2-dihydropyridin-3-yl)methyl)benzyl)-1H-pyrazole-4-carboxamide], less than 1 nM. The value for `Cc1cc(CNc2cc(NCc3c(C)cc4c(N)nccc4c3C)ncn2)cc(C)c1Cn1cccn1` [Example 367, N^4-(4-((1H-pyrazol-1-yl)methyl)-3,5-dimethylbenzyl)-N^6-((1-amino-5,7-dimethylisoquinolin-6-yl)methyl)pyrimidine-4,6-diamine] was less than 1 nM.

In the case of `CCOC(=O)CCc1nc(NCc2c(C)cc3c(N)nccc3c2C)cc(OCc2cn3cc(C4CC4)cnc3n2)n1` [Example 291, ethyl 3-(4-(((1-amino-5,7-dimethylisoquinolin-6-yl)methyl)amino)-6-((6-cyclopropylimidazo[1,2-a]pyrimidin-2-yl)methoxy)pyrimidin-2-yl)propanoate], the EC50 was 1 to 10 nM. The value for `C=Cc1cnc2ccc(Cn3cc(C(=O)NCc4c(C)cc5c(N)nccc5c4C)cn3)cc2c1` [Example 123, N-((1-amino-5,7-dimethylisoquinolin-6-yl)methyl)-1-((3-vinylquinolin-6-yl)methyl)-1H-pyrazole-4-carboxamide] was less than 1 nM.

In general, EC50 refers to the concentration needed to bring the measured effect to its halfway point.
